Measured values from the supplement of paper PMC10307832.

Legend:
XMD13-2 = compound: C1CC1C(=O)NC2=NNC3=C2C=CC(=C3)C4=CC(=CC=C4)C(=O)NC5CC5 [XMD13-2]; test: relative viability (nuclei count vs DMSO), 5 days (fraction); higher = more cells survive
Method in brief: (§1)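 Viability was read as treated-well nuclei divided by vehicle-well nuclei, using the median across plates. Lung cancer cell lines in 1536-well plates were kept overnight at 37 °C, pinned with five √10-spaced library-drug doses, and after 5 days were Hoechst-stained, imaged at 4× and counted in MetaXpress. Plates passed only with control CV below 25% and at least one doubling.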

Dasatinib = compound: Cc1nc(Nc2ncc(C(=O)Nc3c(C)cccc3Cl)s2)cc(N2CCN(CCO)CC2)n1 [Dasatinib]; test: as above
Method in brief: as §1

Cell Line | relative viability (XMD13-2; 0.05 µM) | relative viability (XMD13-2; 0.1581 µM) | relative viability (XMD13-2; 0.5 µM) | relative viability (XMD13-2; 1.581 µM) | relative viability (XMD13-2; 5 µM) | relative viability (Dasatinib; 0.005 µM) | relative viability (Dasatinib; 0.01581 µM) | relative viability (Dasatinib; 0.05 µM) | relative viability (Dasatinib; 0.075 µM, anchor plate) | relative viability (Dasatinib; 0.1581 µM) | relative viability (Dasatinib; 0.5 µM)
NCI-H2009 | 0.989 | 1.13 | 1.22 | 1.04 | 1.07 | 1.07 | 0.988 | 0.929 | 0.303 | 0.456 | 0.236
NCI-H2023 | 1.18 | 1 | 0.992 | 0.986 | 1.02 | 0.883 | 0.888 | 0.735 | 0.592 | 0.648 | 0.593
NCI-H2085 | 1.06 | 0.981 | 1.04 | 0.871 | 1.06 | 0.981 | 0.904 | 0.804 | 0.255 | 0.356 | 0.218
NCI-H2087 | 1.3 | 1.19 | 1.17 | 1.01 | 0.962 | 1.02 | 0.941 | 1.23 | 0.856 | 0.937 | 0.453
NCI-H2126 | 1.02 | 0.949 | 1.02 | 1.03 | 1.03 | 0.98 | 0.864 | 0.945 | 0.643 | 0.814 | 0.403
NCI-H2170 | 1.03 | 0.954 | 0.986 | 1.01 | 0.881 | 0.961 | 0.914 | 0.784 | 0.61 | 0.585 | 0.378
NCI-H2228 | 1.16 | 0.99 | 1.27 | 1.06 | 1.17 | 0.994 | 0.869 | 0.94 | 0.535 | 0.645 | 0.442
NCI-H2342 | 1.1 | 0.97 | 1.03 | 0.804 | 0.972 | 0.967 | 0.632 | 0.834 | 0.311 | 0.535 | 0.309
NCI-H2347 | 1.05 | 1.02 | 1.06 | 1.08 | 0.935 | 0.913 | 0.838 | 0.659 | 0.314 | 0.452 | 0.333
NCI-H2405 | 1.09 | 0.986 | 1.05 | 0.883 | 1.08 | 0.842 | 0.726 | 0.533 | 0.205 | 0.305 | 0.222
NCI-H3122 | 1.01 | 1 | 1.03 | 1.01 | 1.01 | 1.02 | 1.04 | 1.06 | 0.766 | 1.01 | 0.87
PC-3 [JPC-3] | 1.06 | 1.05 | 1.06 | 1.02 | 1.17 | 1.08 | 1.01 | 1.04 | 0.971 | 1.02 | 0.59
PC-14 | 1.08 | 1.04 | 1.07 | 0.98 | 1.13 | 1.12 | 0.98 | 0.877 | 0.264 | 0.65 | 0.234
RERF-LC-KJ | 1.08 | 0.942 | 1.05 | 0.938 | 0.912 | 1.01 | 0.928 | 0.944 | 0.781 | 0.841 | 0.704
SK-LU-1 | 1.07 | 1.03 | 1.19 | 1.05 | 0.924 | 0.823 | 0.542 | 0.42 | 0.174 | 0.312 | 0.25
SK-MES-1 | 1.13 | 1.01 | 1.03 | 0.968 | 1.07 | 1.05 | 0.922 | 0.964 | 0.385 | 0.61 | 0.215
SW 900 | 0.96 | 0.765 | 0.924 | 0.741 | 1.03 | 0.67 | 0.733 | 0.647 | 0.701 | 0.405 | 0.254
SW 1573 | 1.08 | 0.998 | 1.09 | 0.941 | 0.874 | 0.931 | 0.915 | 0.839 | 0.517 | 0.672 | 0.564
